In brackets after ≈: the same amount, converted by molar mass. Like-named read-outs stand apart in the source and are kept apart here. Marks after values point to notes of the source that are not given here.
Columns and labels:
Format in all cases: cell-based
Bacillus subtilis DSM 10 = experiment: MIC serial dilution assay; set-up: key: (-): No inhibition
Protocol: (§1) The Minimum Inhibitory Concentration (MIC) of the isolated metabolites (1–8) was evaluated using serial dilution assays in a 96-well microtiter plate against a panel of Gram-positive bacteria, namely Bacillus subtilis DSM 10, Mycobacterium smegmatis ATCC 700084 and Staphylococcus aureus DSM 346; Gram-negative bacteria, including Acinetobacter baumannii DSM 30008, Chromobacterium violaceum DSM 30191, Escherichia coli DSM 1116 and Pseudomonas aeruginosa PA14 and fungal cultures of Candida albicans DSM 1665, Mucor hiemalis DSM 2656, Rhodotorula glutinis DSM 10134, Schizosaccharomyces pombe DSM 70572 and Wickerhamomyces anomalus DSM 6766, according to previously described protocols. The MTT-based cytotoxicity assay was performed against several cancer cell lines (human endocervical adenocarcinoma KB 3.1, mouse fibroblasts L929, squamous cancer A431, breast cancer MCF-7, lung cancer A549, ovary cancer SK-OV-3, and prostate cancer PC-3) in accordance with our previously established protocols.

[1] = tested on: Staphylococcus aureus DSM 346; experiment: MIC serial dilution assay; set-up: key: (-): No inhibition
Protocol: as §1

[2] = tested on: Escherichia coli DSM 1116; experiment: MIC serial dilution assay; set-up: key: (-): No inhibition; settings: starting concentration 66.7 μg/mL
Protocol: as §1

[3] = tested on: Chromobacterium violaceum DSM 30191; experiment: MIC serial dilution assay; set-up: key: (-): No inhibition; settings: starting concentration 66.7 μg/mL
Protocol: as §1

[4] = tested on: Rhodotorula glutinis DSM 10134; experiment: MIC serial dilution assay; set-up: key: (-): No inhibition; settings: Rhodoturula glutinis, starting concentration 66.7 μg/mL
Protocol: as §1

Mucor hiemalis DSM 2656 = experiment: MIC serial dilution assay; set-up: key: (-): No inhibition
Protocol: as §1

[5] = tested on: Schizosaccharomyces pombe DSM 70572; experiment: MIC serial dilution assay; set-up: key: (-): No inhibition
Protocol: as §1

[6] = tested on: Acinetobacter baumannii DSM 30008; experiment: MIC serial dilution assay; set-up: key: (-): No inhibition; settings: Acinetobacter baumanii, starting concentration 66.7 μg/mL
Protocol: as §1

[7] = tested on: Mycobacterium smegmatis ATCC 700084; experiment: MIC serial dilution assay; set-up: key: (-): No inhibition
Protocol: as §1

[8] = tested on: Pseudomonas aeruginosa PA14; experiment: MIC serial dilution assay; set-up: key: (-): No inhibition; settings: starting concentration 66.7 μg/mL
Protocol: as §1

[9] = tested on: Candida albicans DSM 1665; experiment: MIC serial dilution assay; set-up: key: (-): No inhibition; settings: starting concentration 66.7 μg/mL
Protocol: as §1

[10] = tested on: Wickerhamomyces anomalus DSM 6766; experiment: MIC serial dilution assay; set-up: key: (-): No inhibition; settings: starting concentration 66.7 μg/mL
Protocol: as §1

[11] = tested on: human endocervical adenocarcinoma KB 3.1; experiment: MTT-based cytotoxicity assay; settings: Homo sapiens, KB 3-1
Protocol: as §1

mouse fibroblasts L929 = experiment: MTT-based cytotoxicity assay; settings: Mus musculus
Protocol: as §1

lung cancer A549 = experiment: MTT-based cytotoxicity assay; settings: Homo sapiens
Protocol: as §1

squamous cancer A431 = experiment: MTT-based cytotoxicity assay; settings: Homo sapiens, A-431
Protocol: as §1

prostate cancer PC-3 = experiment: MTT-based cytotoxicity assay
Protocol: as §1

ovary cancer SK-OV-3 = experiment: MTT-based cytotoxicity assay; settings: Homo sapiens, SK-OV-3
Protocol: as §1

breast cancer MCF-7 = experiment: MTT-based cytotoxicity assay; settings: Homo sapiens, MCF7
Protocol: as §1

[12] = tested on: panel of bacteria and fungi; experiment: Antimicrobial serial dilution assay, whole panel; settings: result in words
Protocol: as §1

mammalian cell lines = experiment: cells; settings: mammalian cell lines, result in words
Protocol: as §1

[13] = starting concentration 66.7 μg/mL
[14] = Rhodotorula glutinis, DSM10134, read-out: MIC
[15] = DSM2656, starting concentration 66.7 μg/mL, read-out: MIC
[16] = DSM10, starting concentration 66.7 μg/mL, read-out: MIC
[17] = DSM346, starting concentration 66.7 μg/mL, read-out: MIC
[18] = DSM70572, starting concentration 66.7 μg/mL, read-out: MIC
[19] = KB3.1, starting concentration 37 µg/mL, read-out: IC50
[20] = starting concentration 37 µg/mL, read-out: IC50

| MIC [2] | MIC [3] | MIC (Mucor hiemalis DSM 2656; [15]) | MIC (Bacillus subtilis DSM 10; [16]) | MIC [1, 17] | MIC [6] | MIC [7, 13] | MIC [8] | MIC [9] | MIC [10] | MIC [4] | MIC [5, 13] | Compound | IC50 [11, 19] | IC50 (mouse fibroblasts L929; [20]) | also measured |
| --- | --- | --- | --- | --- | --- | --- | --- | --- | --- | --- | --- | --- | --- | --- | --- |
| - | - | 33.3 µg/mL (≈ 75.8 µM) | 66.6 µg/mL (≈ 152 µM) | 66.6 µg/mL (≈ 152 µM) | - | - | - | - | - |  |  | CC(C)=CCc1ccc(O)c2c1C(O)(c1cc(C)cc3c1O[C@H](C(C)(C)O)CO3)NC2=O (some centres unmarked) [Compound 4, diaporisoindole F1/F2] | 31.9 µM | 59.2 µM | MIC [4, 14]: 33.3 µg/mL (≈ 75.8 µM); MIC [5, 18]: 33.3 µg/mL (≈ 75.8 µM) |
| - | - | 66.6 µg/mL | 66.6 µg/mL | 66.6 µg/mL | - | - | - | - | - |  |  | CC(C)=CCc1ccc(O)c2c1C(c1cc(C)cc3c1O[C@H](C(C)(C)O)CO3)NC2=O (mixture of isomers) [Compound 5, diaporisoindole A/B] | 22 µM | 54.4 µM | MIC [4, 14]: 66.6 µg/mL; MIC [5, 18]: 33.3 µg/mL |
| - | - | 66.6 µg/mL | 33.3 µg/mL | 33.3 µg/mL | - | - | - | - | - | - | - | CC(C)=CCc1ccc(O)c2c1C(O)(c1cc(C)cc3c1O[C@H](C(C)(C)O)CO3)OC2 (mixture of isomers) [Compound 3, isoprenylisobenzofuran C1/C2] | 32.9 µM | 51.6 µM |  |
| - | - | 8.3 µg/mL (≈ 19.8 µM) | 16.6 µg/mL (≈ 39.6 µM) | 66.6 µg/mL (≈ 159 µM) | - |  | - | - | - | - | - | CCC(C)C=C(C)C=CC1=CC2=C(Cl)C(=O)C3(C)OC(=O)C(C(C)O)C3C2=CO1 (centres unmarked) [Compound 7, isochromophilonol A1/A2] | 5.3 µM | 12.9 µM | MIC ([7]; Mycolicibacterium smegmatis, ATCC700084, starting concentration 66.7 μg/mL, read-out: MIC): 16.6 µg/mL (≈ 39.6 µM); IC50 (lung cancer A549; [20]): 2300 nM; IC50 (squamous cancer A431; A431, starting concentration 37 µg/mL, read-out: IC50): 4100 nM; IC50 (prostate cancer PC-3; PC-3, starting concentration 37 µg/mL, read-out: IC50): 1100 nM; IC50 (ovary cancer SK-OV-3; SKOV-3, starting concentration 37 µg/mL, read-out: IC50): 3300 nM; IC50 (breast cancer MCF-7; MCF-7, starting concentration 37 µg/mL, read-out: IC50): 900 nM |
|  |  |  |  |  |  |  |  |  |  |  |  | O=C(O)c1cn(C2CC2)c2cc(N3CCNCC3)c(F)cc2c1=O [Ciprobay, reference compound] |  |  | MIC ([6]; Acinetobacter baumannii, DSM30008, read-out: MIC): 0.26 µg/mL (≈ 0.785 µM) |
|  |  |  |  |  |  |  |  |  |  |  |  | C/C(=C\c1csc(C)n1)[C@@H]1C[C@@H]2O[C@]2(C)CCC[C@H](C)[C@H](O)[C@@H](C)C(=O)C(C)(C)[C@@H](O)CC(=O)O1 [Epothilone B, reference compound] |  |  | IC50 (lung cancer A549): 0.069 nM; IC50 (squamous cancer A431): 0.055 nM; IC50 [11]: 4.5e-05 µM; IC50 (mouse fibroblasts L929): 0.00043 µM; IC50 (prostate cancer PC-3): 0.073 nM; IC50 (ovary cancer SK-OV-3): 0.099 nM; IC50 (breast cancer MCF-7): 0.061 nM |

| Compound | MIC [2] | MIC [3] | MIC (Mucor hiemalis DSM 2656; [15]) | MIC (Bacillus subtilis DSM 10; [16]) | MIC [1, 17] | MIC [6] | MIC [7, 13] | MIC [8] | MIC [9] | MIC [10] | MIC [4] | MIC [5, 13] | IC50 [11, 19] | IC50 (mouse fibroblasts L929; [20]) | also measured |
| --- | --- | --- | --- | --- | --- | --- | --- | --- | --- | --- | --- | --- | --- | --- | --- |
| CN(C)[C@@H]1C(=O)C(C(N)=O)=C(O)[C@@]2(O)C(=O)C3=C(O)c4c(O)cccc4[C@@](C)(O)[C@H]3[C@H](O)[C@@H]12 [Oxytetracyclin, reference compound] | 1.7 ^o µg/mL | 0.83 ^o µg/mL |  |  |  |  |  |  |  |  |  |  |  |  | MIC (Bacillus subtilis DSM 10; [13]): 8.3 ^o µg/mL; MIC [1, 13]: 0.83 ^o µg/mL |
| CCC(C)C1OC(=O)CNC(=O)CNC(=O)[C@H]([C@@H](C)O)NC(=O)C(C)C(O)CC(O)CC/C=C/C1C (some centres unmarked) [Compound 1, eucalactam B] | - | - |  |  |  | - | - | - | - | - | - | - | > 72 µM | > 72 µM | MIC (Mucor hiemalis DSM 2656; [13]): -; MIC (Bacillus subtilis DSM 10; [13]): -; MIC [1, 13]: -; antimicrobial activity against the tested microorganisms [12]: devoid of any activity; cytotoxic effect (mammalian cell lines): did not show any cytotoxic effect |

From paper PMC10381184, “Unprecedented Antimicrobial and Cytotoxic Polyketides from Cultures of Diaporthe africana sp. nov” (Journal of Fungi, 2023)
